{"source": "ChEMBL document CHEMBL2074108", "about": "“Inhibition of P-glycoprotein activity and chemosensitization of multidrug-resistant ovarian carcinoma 2780AD cells by hexanoylglucosylceramide” (Biochem Biophys Res Commun, 1999)", "format_in_all_cases": "functional, cell-based", "key": {"[1]": {"target": "T1, ATP-dependent translocase ABCB1 (Homo sapiens, UniProt P08183)", "T1 sequence (P08183 whole entry)": "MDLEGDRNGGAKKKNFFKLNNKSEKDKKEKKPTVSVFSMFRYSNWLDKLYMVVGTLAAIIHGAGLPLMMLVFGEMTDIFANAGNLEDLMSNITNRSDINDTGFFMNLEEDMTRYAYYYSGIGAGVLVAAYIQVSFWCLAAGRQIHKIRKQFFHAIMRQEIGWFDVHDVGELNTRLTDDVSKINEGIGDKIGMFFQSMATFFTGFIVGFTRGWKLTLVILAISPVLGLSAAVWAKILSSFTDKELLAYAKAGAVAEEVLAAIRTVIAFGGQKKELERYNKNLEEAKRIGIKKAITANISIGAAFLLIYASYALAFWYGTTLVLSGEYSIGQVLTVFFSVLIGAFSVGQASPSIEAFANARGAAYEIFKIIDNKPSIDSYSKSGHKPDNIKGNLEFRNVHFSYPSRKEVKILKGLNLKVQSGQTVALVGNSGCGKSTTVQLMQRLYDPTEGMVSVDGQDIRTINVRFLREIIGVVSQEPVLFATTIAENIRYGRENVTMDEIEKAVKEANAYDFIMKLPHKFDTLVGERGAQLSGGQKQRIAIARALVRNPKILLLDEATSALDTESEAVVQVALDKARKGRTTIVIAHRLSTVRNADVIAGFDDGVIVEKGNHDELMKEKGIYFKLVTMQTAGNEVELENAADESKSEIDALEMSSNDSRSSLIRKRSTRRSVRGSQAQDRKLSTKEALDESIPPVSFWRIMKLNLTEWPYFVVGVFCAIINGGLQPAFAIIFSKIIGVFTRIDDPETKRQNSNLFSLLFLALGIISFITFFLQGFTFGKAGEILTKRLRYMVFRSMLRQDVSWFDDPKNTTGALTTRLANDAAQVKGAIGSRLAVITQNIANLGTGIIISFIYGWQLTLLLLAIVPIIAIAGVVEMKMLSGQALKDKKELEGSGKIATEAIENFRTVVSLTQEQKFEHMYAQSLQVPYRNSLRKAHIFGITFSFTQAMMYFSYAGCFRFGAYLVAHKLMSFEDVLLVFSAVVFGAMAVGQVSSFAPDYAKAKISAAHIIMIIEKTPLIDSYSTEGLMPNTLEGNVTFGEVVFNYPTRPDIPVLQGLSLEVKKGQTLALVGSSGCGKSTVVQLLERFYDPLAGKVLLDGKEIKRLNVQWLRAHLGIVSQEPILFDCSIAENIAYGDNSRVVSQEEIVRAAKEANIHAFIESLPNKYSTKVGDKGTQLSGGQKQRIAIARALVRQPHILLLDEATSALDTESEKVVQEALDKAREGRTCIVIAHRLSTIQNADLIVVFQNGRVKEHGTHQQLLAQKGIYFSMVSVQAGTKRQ", "assay": "TP_TRANSPORTER: inhibition of Rhodamine 123 efflux (R123: 10 uM, C6-GalCer: 20 uM) in 2780AD cells"}, "[2]": {"target": "T1, ATP-dependent translocase ABCB1", "assay": "TP_TRANSPORTER: inhibition of Rhodamine 123 efflux (R123: 10 uM, C6-GlcCer: 20 uM) in 2780AD cells"}, "[3]": {"target": "T1, ATP-dependent translocase ABCB1", "assay": "TP_TRANSPORTER: inhibition of Rhodamine 123 efflux (R123: 10 uM, C6-LacCer: 20 uM) in 2780AD cells"}, "[4]": {"target": "T1, ATP-dependent translocase ABCB1", "assay": "TP_TRANSPORTER: inhibition of Rhodamine 123 efflux (R123: 10 uM, C6-SM: 10 uM) in 2780AD cells"}}, "data": [{"smiles": "CCCCCCCCCCCCC/C=C/[C@@H](O)[C@H](CO[C@@H]1O[C@H](CC)[C@H](O)[C@H](O)[C@H]1O)NC(=O)CCCCCC", "values": [{"measurement": "Activity", "setting": "[1]", "value": "inhibitor [+]"}]}, {"smiles": "CCCCCCCCCCCCC/C=C/[C@@H](O)[C@H](CO[C@@H]1O[C@H](CC)[C@@H](O)[C@H](O)[C@H]1O)NC(=O)CCCCCC", "values": [{"measurement": "Activity", "setting": "[2]", "value": "inhibitor [+]"}]}, {"smiles": "CCCCCCCCCCCCC/C=C/[C@@H](O)[C@H](CO[C@@H]1O[C@H](CC)[C@@H](O[C@@H]2O[C@H](CO)[C@@H](O)[C@H](O)[C@H]2O)[C@H](O)[C@H]1O)NC(=O)CCCCCC", "values": [{"measurement": "Activity", "setting": "[3]", "value": "inhibitor [+]"}]}, {"smiles": "CCCCCCCCCCCCCCCC(O)C(CO)NC(=O)CCCCCC", "note": "(centres undefined)", "values": [{"measurement": "Activity", "setting": "[4]", "value": "inhibitor [+]"}]}]}
